This is an account of results in US20070027198A1, “Crystal of heterocyclic compound” (priority 2003, published 2007).

What all share (type): physicochemical
A short description of data set [1]: Investigation of thermodynamic stability by differential scanning calorimetry. The procedure:
The differential scanning calorimetry in Experimental Example 5 was made by means of a Perkin Elmer DSC7 (for temperature-raising rate of 1° C./minute, the range of measurement: 130° C.→160° C.; and for temperature-raising rate of 2, 5, 7 or 10° C./minute, the range of measurement: 120° C.→170° C.).
The thermodynamic stability of the crystal of Compound A was investigated by differential scanning calorimetry.
The differential scanning calorimetry was carried out at a temperature-raising rate of 1, 2 or 5° C./minute for Form I crystal of Compound A and at 1, 5, 7 or 10° C./minute for Form II crystal. The results are shown in FIG. 7 (a chart of differential scanning calorimetry in Form I crystal), FIG. 8 and FIG. 9 (a chart of differential scanning calorimetry in Form II crystal).
(Differential scanning calorimetry records heat flow against a reference as temperature is scanned.)

The nature of data set [2]: Investigation of transformation mediated by solvents (suspension in toluene, crystalline form confirmed by DSC). The conditions noted are these: 50 mg suspended in 1 ml of toluene, stirred overnight. On the procedure: The differential scanning calorimetry in Example 1 and Example 2 was made by means of a Perkin Elmer DSC7 (temperature-raising rate: 10° C./minute; the range of measurement: 50° C. (constant temperature 1 minute)→180° C.). The differential scanning calorimetry in Experimental Example 4 was made by means of Shimadzu Corporation's DSC-50 (temperature-raising rate: 2° C./minute; the range of measurement: room temperature→220° C.).
The influence of toluene (solvent) on the crystalline form of Compound A was investigated.
Form I crystals and Form II crystals of Compound A, 50 mg each, were weighed and respectively suspended in 1 ml of toluene, and stirred overnight. Thereafter, the crystals were separated by filtration and dried, of which the crystalline form was confirmed by a differential scanning calorimetry.

Data set [3] in a line: Investigation of hygroscopicity (weight change and powder X-ray diffraction after storage in a desiccator). The following applies: for transformation of crystalline form (powder X-ray diffraction before and after storage): 25° C. in 93% RH for 14 days; for weight change caused by absorption of moisture: 93% RH at 25° C., stored up to 14 days. The procedure: The powder X-ray diffraction spectra were measured by means of a Rigaku Corporation's RAD-2B (target: Cu; Voltage: 40 kV; current: 20 mA; scanning speed: 4°/minute; measurement error: 2θ±0.2°).
Form I crystals and Form II crystals of Compound A, approximately 1 g each, were precisely weighed in weighing bottles, which were then kept in a desiccator of 93% RH at 25° C. […] In addition, the powder X-ray diffraction spectra were measured before and after preservation. The results are shown in FIG. 3 (weight change of Form I crystal), FIG. 4 (weight change of Form II crystal), FIG. 5 (powder X-ray diffraction spectrum of Form I crystal), and FIG. 6 (powder X-ray diffraction spectrum of Form II crystal).

For `Cc1ccc(-c2nc(CCCC[C@H]3CO[C@@](C)(C(=O)O)OC3)c(C)o2)cc1` [Form II crystal, 2-methyl-c-5-[4-[5-methyl-2-(4-methylphenyl)-1,3-oxazol-4-yl]butyl]-1,3-dioxane-r-2-carboxylic acid], the “peak of Form I crystal in differential scanning calorimetry” value in data set [1] (lower temperature-raising rate: 7° C./minute, 5° C./minute, 1° C./minute) was “a peak resulting from Form I crystal was recognized”. Besides, the “peak of Form I crystal in differential scanning calorimetry” value in data set [1] (temperature-raising rate of 10° C./minute) was “no peak of Form I crystal was confirmed”. Besides, the “transformation of crystalline form in solvent” value in data set [2] (listed as form II crystal) is on record as “no transformation of crystalline form occurs”. For the same compound, in data set [3], the “transformation of crystalline form (powder X-ray diffraction before and after storage)” value was “no transformation of crystalline form”; the “weight change caused by absorption of moisture” value was “no change of weight”.
On to `Cc1ccc(-c2nc(CCCC[C@H]3CO[C@@](C)(C(=O)O)OC3)c(C)o2)cc1` [Form I crystal, 2-methyl-c-5-[4-[5-methyl-2-(4-methylphenyl)-1,3-oxazol-4-yl]butyl]-1,3-dioxane-r-2-carboxylic acid], for which, in data set [1] (temperature-raising rate of 1, 2 or 5° C./minute), the “endothermic peaks in differential scanning calorimetry” value is reported as “only one endothermic peak”. The “transformation of crystalline form in solvent” value in data set [2] is “transformed into Form II crystal”. In data set [3] (listed as Form I crystals), the “transformation of crystalline form (powder X-ray diffraction before and after storage)” value is reported as “transformation of crystalline form (from Form I to Form II) was recognized”; the “weight change caused by absorption of moisture” value is listed as 2.3%.
